According to US6984719B1, “Peptide antagonists of prostaglandin F2α receptor” (Hospital Sainte-Justine, priority 1998, dated 2006):
pIC50: −log10 of the molar value. Ends that are not written are not given here.

Columns and labels:
[1] = molecular target: T1, human FP receptor (Homo sapiens, UniProt P43088); experiment: PGF2α-induced phosphoinositide hydrolysis (inositol phosphate synthesis) in HEK293 cells expressing FP receptor; type: cell-based; details: 1 μM PGF2α
T1 construct: expressed in transfected cells
Method: Both PCP-8 and -10 were tested in HEK293 cells expressing the human FP receptor. For this purpose, HEK 293 cells stably expressing human FP receptor were plated in 12-well plates in DMEM medium containing 10% fetal bovine serum, penicillin (10 U/ml) and streptomycin (10 μg/ml) and cultured in a humidified atmosphere containing 5% CO2 at 37° C. After the wells were 80% confluent, the cells were labeled with 2 μCi/ml of [^3H]-myo inositol overnight. Next day, the cells were washed once with PBS, and incubated in 0.5 ml of Kreb's buffer containing 10 mM LiCl and indicated concentrations of PCP peptides for 30 min. PGF2α at 1 μM was added to the cells and the incubation was carried out for an additional 30 min. The cells were solubilized with 0.1 N NaOH for 10 min and neutralized with 0.1 N formic acid. The lysates were collected and 1 ml each of methanol and chloroform were sequentially added and vortexed briefly. After centrifugation to separate the phases, inositol phosphates were separated by ion exchange chromatography as described below (Berridge, M. J. et al., 1983, Biochem. J. 212:473–482).
Briefly, the medium was discarded and the IP3 synthesis was stopped by adding 0.6 ml ice-cold methanol. The cells were scraped and collected into polypropylene tubes. Distilled water (0.5 ml) and chloroform (0.6 ml) were added and vigorously vortexed for 2 min. The phases were separated by centrifugation at 6000×g for 10 min. The aqueous phase was applied to AG-1X-8™ (Formate form) anion exchange columns (1 ml bed volume) and free inositol was eluted with 10 ml of water, followed by 60 mM ammonium formate in 0.1 M formic acid. Then, the inositol phosphates were eluted with 5 ml of 1.2 M ammonium formate in 0.1 M formic acid. After adding 3 volumes of scintillation cocktail (Optiphase-HiSafe III), the eluates were counted by scintillation spectrophotometry.
Data are expressed as fold stimulation of inositol phosphate synthesis by 1 μM PGF2α compared to the unstimulated controls. […] The half maximal inhibitory concentrations for both PCP-8 and -10 were slightly less than 100 μM.

[2] = molecular target: T2, FP receptor (Sus scrofa, UniProt C6GAG8); experiment: Porcine eyecup model of ex vivo vasomotricity assay, PGF2α-induced constriction of retinal microvessels; design: species or system pig
T2 construct: from tissue; host or cells: eyecup / retinal microvessels of newborn pigs pretreated with ibuprofen
Description: In order to see if the peptides could inhibit FP function using an ex vivo model, we chose porcine eyecup model, an ex vivo assay of vascular constriction in porcine retinas which we previously described and validated (Li et al., 1996 J. Pharmacol. Expt. Therapeut. 278: 370–377; Li et al., 1997 Am. J. Physiol. 273: R1283–90; Abran et al., 1997 Am. J. Physiol. 272: R995–1001). Since FP receptor densities in newborn vasculature are minimal due to down regulation by high levels of circulating prostaglandins in the perinatal period, the newborn pigs were treated with a prostaglandin synthetase blocker, ibuprofen (30 mg/Kg of bodyweight/8 h for 24 h) to increase the density of the receptors as well as their vasomotor effects. By inhibiting circulating prostaglandins, we were able to show potent inhibition of FP receptor-mediated second messenger synthesis as well as FP-mediated vascular constriction in this eyecup model.
(§1) To prepare eyecups, a circular incision was made 3–4 mm posterior to ora serrata to remove the […] segment and vitreous body with minimal handling of the retina. The remaining eyecup was fixed with pins to a wax base in a 20 ml tissue bath containing 20 ml of Kreb's buffer (pH 7.35–7.45), protease inhibitors, leupetin and aprotinin (10 μg/ml each), and equilibrated with 21% oxygen and 5% carbon dioxide at 37° C. The preparations were allowed to stabilize for 30 min. Peptides at 100 μM were added and incubation was continued for 30 min before the addition of PGF2α.
(§2) Cumulative concentration-responses of PGF2α, and TxA2 mimetic, U46619, (10^−10 to 10^−5 M) curves were constructed separately. To assess the reversibility of the antagonists, the eyecups were thoroughly washed (which would wash away the peptide) with incubation medium and concentration response curves for PGF2α were determined. The outer vessel diameter was recorded with a video camera mounted on a dissecting microscope (Zeiss M 400™) and the responses were quantified by a digital image analyzer (Sigma Scan Software, Jandel Scientific, Corte Madera, Calif.). Vascular diameter was recorded before and 10 min following the topical application of the agent.
^1Percent vasomotor response in the presence of 100 μM peptide is calculated as percent change in average vascular diameter produced by 10^−7 M PGF2α to the eyecup in the presence of the peptide compared to maximal constriction observed in the absence of the peptide.
^2Percent inhibition produced by each peptide is calculated as (100-percent vasomotor response).
Small letters indicate L-amino acids and capital letters indicate D-amino acids. I=isoleucine; L=leucine; G=glycine; H=histidine; R=Arginine; D=Aspartic acid; Y=Tyrosine; K=Lysine; A=Alanine; W=Tryptophan; E=Glutamic acid; F=Phenyl alanine; Q=Glutamine; N=Aspargine; P=Proline; S=Serine; X=Cyclohexyl alanine. Peptides were dissolved in DMSO freshly just before the experiment as 10 mM stocks and added to the eye cups 30 min before the addition of 10^−7 M PGF2α.
These peptides incorporate L- to D-amino acid changes, deletions, subtle variations in aromaticity, hydrogen bond donor status as opposed to ionic interactions and hydrophobicity.

[3] = test system: TP receptor; experiment: Porcine eyecup model of ex vivo vasomotricity assay, constriction by TxA2 mimetic U46619; design: species or system pig; details: peptide 100 μM; 1 μM U46619 / dose response
Method: as §1, §2
The peptide PCP-10 had no effect on the basal tone (diameter of the microvessel) of the vessel (FIG. 2A; left panels). […]

[4] = test system: FP receptor; experiment: Porcine uterine strip ex vivo contraction assay (basal and PGF2α-induced); design: species or system pig; details: 100 μM peptide
Method: In ex vivo experiments using porcine uterine strips, the peptides were able to prevent both basal and PGF2α-induced contraction.
Uterine tissues from non-pregnant adult pigs were obtained from a local slaughter house and transported to the laboratory on ice. Uterine myometrial strips of approximately 1 cm in length were set up in organ baths containing Kreb's buffer equilibrated with 21% oxygen at 37° C. as we have described (Potvin, W. et al., 1990, Br. J. Pharmacol. 100:341–347; Varma, D. R. and Chemtob, S., 1993, J. Pharmacol. Expt. Ther. 265:1096–1104). Contractions were recorded by force transducers on Grass-polygraph. Strips were incubated with or without 100 μM peptides for 30 min before adding PGF2α in step-wise increments (10^−9 to 10^−6 M). Data were expressed as percentage increase over the basal level of average tension (g).
A graph of spontaneous uterine contractions (known to be dependent upon prostanoids, mainly PGF2α) in the absence and the presence of 100 μM PCP-8 are shown in FIG. 3A.

T2 sequence (C6GAG8 1-362): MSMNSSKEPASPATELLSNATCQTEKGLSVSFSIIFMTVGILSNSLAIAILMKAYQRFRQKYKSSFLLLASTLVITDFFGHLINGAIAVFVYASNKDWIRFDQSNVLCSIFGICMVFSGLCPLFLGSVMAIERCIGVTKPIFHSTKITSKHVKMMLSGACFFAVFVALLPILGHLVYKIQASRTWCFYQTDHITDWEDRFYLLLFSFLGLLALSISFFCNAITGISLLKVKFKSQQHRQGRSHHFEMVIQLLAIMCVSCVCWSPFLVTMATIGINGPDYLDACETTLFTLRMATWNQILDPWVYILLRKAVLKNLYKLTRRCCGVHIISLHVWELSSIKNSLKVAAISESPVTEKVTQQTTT
T1 sequence (P43088 whole entry): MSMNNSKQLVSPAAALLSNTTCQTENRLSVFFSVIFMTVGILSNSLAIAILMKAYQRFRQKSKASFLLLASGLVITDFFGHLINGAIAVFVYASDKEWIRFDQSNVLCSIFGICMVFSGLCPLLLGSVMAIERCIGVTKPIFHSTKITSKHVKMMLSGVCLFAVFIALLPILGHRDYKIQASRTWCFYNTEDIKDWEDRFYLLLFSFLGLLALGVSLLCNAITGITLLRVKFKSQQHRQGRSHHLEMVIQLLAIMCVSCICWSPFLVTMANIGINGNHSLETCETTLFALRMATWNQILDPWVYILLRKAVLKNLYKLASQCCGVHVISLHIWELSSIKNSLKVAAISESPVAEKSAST

ILGHRDYK-OH [PCP-8, ilghrdyk]
pIC50 ([1]; HEK293 cells stably expressing human FP receptor, read-out: half maximal inhibitory concentration, inositol phosphate synthesis): > 4.00
inhibition of inositol phosphate synthesis initiated by PGF2α ([1]; peptide at 100 μM): potently inhibited
Emax ([2]; 100 μM peptide, 10^−7 M PGF2α, calculated as 100-percent vasomotor response, read-out: % inhibition of maximal response): 50%
effect on vasomotor responses in PGF2α dose response ([2]; peptide 100 μM, even at concentrations exceeding 1 μM of PGF2α): abrogated the vasomotor responses
effect on vasoconstriction by TxA2 mimetic U46619 [3]: no effect
reduction in uterine contraction ([4]; all concentrations of PGF2α tested (10^−9 to 10^−6 M)): More than 60%
effect on spontaneous (basal) uterine contraction ([4]; porcine uterine strips): reduced the force of basal contraction
